Measured values from PubChem BioAssay AID248 (DTP/NCI, 2004).
Where “and” joins values, the source holds several entries; their conditions need not be identical. Equal values may be shown once. Inconclusive results and toxic doses are left out. Rule as the data show it: active = T/C of 150% or more; inactive = T/C below 125%.

Tested on: L1210 leukemia ip in BDF1 mice, survival T/C
Assay: NCI In Vivo Anticancer Drug Screen. Data for tumor model L1210 Leukemia (intraperitoneal) in B6D2F1 (BDF1) mice
Settings: endpoint: mean survival time, higher = longer survival
How it was run: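 Survival endpoint. Drug-treated group vs vehicle group, expressed as T divided by C. Tumor passaged by transplantation.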

[1] = dose: 100.0 mg/kg/injection, schedule: Q01DX001 (ip), vehicle: saline
[2] = dose: 200.0 mg/kg/injection, schedule: Q01DX001 (ip), vehicle: saline
[3] = dose: 100.0 mg/kg/injection, schedule: Q01DX009 (ip), vehicle: Klucel (hydroxypropylcellulose) (HPC)
[4] = dose: 200.0 mg/kg/injection, schedule: Q01DX009 (ip), vehicle: Klucel (hydroxypropylcellulose) (HPC)
[5] = dose: 400.0 mg/kg/injection, schedule: Q01DX009 (ip), vehicle: Klucel (hydroxypropylcellulose) (HPC)
[6] = dose: 100.0 mg/kg/injection, schedule: Q04DX003 (ip), vehicle: Klucel (hydroxypropylcellulose) (HPC)
[7] = dose: 200.0 mg/kg/injection, schedule: Q04DX003 (ip), vehicle: Klucel (hydroxypropylcellulose) (HPC)
[8] = dose: 400.0 mg/kg/injection, schedule: Q04DX003 (ip), vehicle: Klucel (hydroxypropylcellulose) (HPC)
[9] = dose: 100.0 mg/kg/injection, schedule: Q01DX009 (ip), vehicle: saline with Tween-80
[10] = dose: 100.0 mg/kg/injection, schedule: Q04DX003 (ip), vehicle: saline with Tween-80
[11] = dose: 200.0 mg/kg/injection, schedule: Q01DX009 (ip), vehicle: saline with Tween-80
[12] = dose: 200.0 mg/kg/injection, schedule: Q04DX003 (ip), vehicle: saline with Tween-80
[13] = dose: 400.0 mg/kg/injection, schedule: Q04DX003 (ip), vehicle: saline with Tween-80
[14] = dose: 25.0 mg/kg/injection, schedule: Q01DX009 (ip), vehicle: saline with Tween-80
[15] = dose: 50.0 mg/kg/injection, schedule: Q01DX009 (ip), vehicle: saline with Tween-80
[16] = dose: 100.0 mg/kg/injection, schedule: Q04DX002 (ip), vehicle: Klucel (hydroxypropylcellulose) (HPC)
[17] = dose: 400.0 mg/kg/injection, schedule: Q01DX001 (ip), vehicle: saline
[18] = dose: 200.0 mg/kg/injection, schedule: Q04DX002 (ip), vehicle: Klucel (hydroxypropylcellulose) (HPC)
[19] = dose: 75.0 mg/kg/injection, schedule: Q01DX001 (ip), vehicle: saline
[20] = dose: 400.0 mg/kg/injection, schedule: Q04DX002 (ip), vehicle: Klucel (hydroxypropylcellulose) (HPC)

Measured: T/C

CC(C)(C(=O)O)C(=O)O
inactive: [1] 103 % of control | [2] 106 % of control

CCOc1ccc(C(=O)/C=C\c2ccc(N(CC)CC)cc2)cc1
inactive: [3] 96 % of control | [4] 93 % of control | [5] 91 % of control

c1ccc(Oc2ccccn2)cc1
inactive: dose: 50.0 mg/kg/injection, schedule: Q04DX003 (ip), vehicle: Klucel (hydroxypropylcellulose) (HPC) 91 % of control | [6] 94 % of control | [7] 94 % of control | [8] 97 % of control

Cc1c(Cl)cccc1NC(=O)Nc1ccc(S(N)(=O)=O)cc1
inactive: [9] 93 % of control and 97 % of control | dose: 100.0 mg/kg/injection, schedule: Q04DX002 (ip), vehicle: saline with Tween-80 101 % of control and 110 % of control | [10] 100 % of control | [11] 104 % of control and 105 % of control | dose: 200.0 mg/kg/injection, schedule: Q04DX002 (ip), vehicle: saline with Tween-80 101 % of control and 104 % of control | [12] 95 % of control | dose: 400.0 mg/kg/injection, schedule: Q01DX009 (ip), vehicle: saline with Tween-80 93 % of control and 101 % of control | dose: 400.0 mg/kg/injection, schedule: Q04DX002 (ip), vehicle: saline with Tween-80 93 % of control and 95 % of control | [13] 92 % of control

CCOC(=O)c1ccc(NC(=O)NCCCCCCNC(=O)Nc2ccc(C(=O)OCC)cc2)cc1
inactive: [3] 90 % of control | [4] 100 % of control | [5] 100 % of control

COC(=O)C(CCCCN=Cc1ccccc1O)N=Cc1ccccc1O.[Cu] (stereo not given)
inactive: dose: 6.25 mg/kg/injection, schedule: Q01DX009 (ip), vehicle: saline with Tween-80 96 % of control | dose: 12.5 mg/kg/injection, schedule: Q01DX009 (ip), vehicle: saline with Tween-80 93 % of control | [14] 96 % of control and 98 % of control | [15] 103 % of control | [10] 96 % of control

O=C(Sc1ccc2ccccc2c1CN1CCCCC1)c1ccc([N+](=O)[O-])cc1
inactive: dose: 200.0 mg/kg/injection, schedule: Q01DX Z (ip), vehicle: methylcellulose (MC) 96 % of control | dose: 225.0 mg/kg/injection, schedule: Q01DX Z (ip), vehicle: methylcellulose (MC) 94 % of control | dose: 450.0 mg/kg/injection, schedule: Q01DX Z (ip), vehicle: methylcellulose (MC) 89 % of control | dose: 675.0 mg/kg/injection, schedule: Q01DX Z (ip), vehicle: methylcellulose (MC) 96 % of control

OC(COc1cccc2ccccc12)CN1CCCCC1 (stereo not given)
inactive: dose: 25.0 mg/kg/injection, schedule: Q04DX002 (ip), vehicle: Klucel (hydroxypropylcellulose) (HPC) 106 % of control | dose: 50.0 mg/kg/injection, schedule: Q04DX002 (ip), vehicle: Klucel (hydroxypropylcellulose) (HPC) 98 % of control | [16] 92 % of control

Nc1ccnc2cc(Cl)ccc12
inactive: dose: 75.0 mg/kg/injection, schedule: Q01DX001 (ip), vehicle: other 103 % of control | dose: 150.0 mg/kg/injection, schedule: Q01DX001 (ip), vehicle: other 100 % of control

Cc1nc(N)c2c(ncn2C2OC(CO)C(O)C2O)n1 (stereo not given)
inactive: [1] 100 % of control | [2] 108 % of control | [17] 105 % of control

NC(=O)c1nccc2ccccc12
inactive: [1] 110 % of control | [2] 107 % of control | [17] 98 % of control

COc1ccc(NC(=S)Nc2ccc(-c3ccc(NC(=S)Nc4ccc(OC)cc4)cc3)cc2)cc1
inactive: [16] 87 % of control | [18] 87 % of control

Cc1ccc(-n2cnc3c(=O)[nH]cnc32)cc1
inactive: [1] 98 % of control | [2] 93 % of control | [17] 93 % of control

COc1ccc(Cl)cc1C/C=N/NC(=O)C[N+](C)(C)C
inactive: [19] 92 % of control

Cc1c(CC#N)cc(C)c2c3c([nH]c12)CCCC3
inactive: dose: 50.0 mg/kg/injection, schedule: Q01DX009 (ip), vehicle: Klucel (hydroxypropylcellulose) (HPC) 95 % of control | [3] 98 % of control | [4] 91 % of control

Cc1cc(C)c(O)c(N=Nc2ccccc2)c1
inactive: dose: 100.0 mg/kg/injection, schedule: Q04DX003 (ip), vehicle: saline sonified 95 % of control | dose: 200.0 mg/kg/injection, schedule: Q04DX003 (ip), vehicle: saline sonified 93 % of control | dose: 400.0 mg/kg/injection, schedule: Q04DX003 (ip), vehicle: saline sonified 91 % of control

CCOC1(C)OC2CCCCC2O1 (stereo not given)
inactive: [15] 92 % of control | [9] 92 % of control | [11] 92 % of control

[O-]c1on[n+](C2CCCCC2)c1-c1ccccc1
inactive: [10] 95 % of control | [12] 91 % of control | [13] 101 % of control

O=S(=O)(Cc1ccccc1)C(I)c1ccccc1 (stereo not given)
inactive: [16] 108 % of control | [18] 122 % of control | [20] 105 % of control

c1cc[c]([Pb]([c]2ccccc2)([c]2ccccc2)[n]2ccnc2)cc1
inactive: dose: 5.0 mg/kg/injection, schedule: Q01DX001 (ip), vehicle: other 106 % of control | dose: 10.0 mg/kg/injection, schedule: Q01DX001 (ip), vehicle: other 98 % of control

CCCC[N+](C)(C)CCOC(=O)C1C2CC3OC(=O)C1C3C2 (stereo not given)
inactive: dose: 100.0 mg/kg/injection, schedule: Q04DX003 (ip), vehicle: saline 95 % of control

O=C(O)Cc1cc([N+](=O)[O-])c(O)c([N+](=O)[O-])c1
inactive: dose: 100.0 mg/kg/injection, schedule: Q01DX009 (ip), vehicle: saline sonified 101 % of control | [6] 95 % of control | dose: 200.0 mg/kg/injection, schedule: Q01DX009 (ip), vehicle: saline sonified 102 % of control | [7] 88 % of control | dose: 400.0 mg/kg/injection, schedule: Q01DX009 (ip), vehicle: saline sonified 102 % of control | [8] 93 % of control

CC(=O)c1ccccc1C(C)c1ccc(C)c2ccccc12 (stereo not given)
inactive: [16] 120 % of control | [18] 97 % of control | [20] 104 % of control

Cc1ccc(C(=O)CCc2ccccc2)cc1
inactive: dose: 100.0 mg/kg/injection, schedule: Q04DX003 (ip), vehicle: other 92 % of control | dose: 200.0 mg/kg/injection, schedule: Q04DX003 (ip), vehicle: other 91 % of control | dose: 400.0 mg/kg/injection, schedule: Q04DX003 (ip), vehicle: other 94 % of control

CC=C=[CH][Sn]([CH2]CC)([CH2]CC)[CH2]CC
inactive: [19] 91 % of control

O=C(c1ccccc1)C(Br)C(C(=O)c1ccccc1)c1ccccc1 (stereo not given)
inactive: [15] 94 % of control | [9] 90 % of control | [11] 86 % of control

CC(=O)OC1OC(CF)C(OC(C)=O)C1OC(C)=O (stereo not given)
inactive: [9] 92 % of control

CC1(N)COP(=O)(Nc2ccccc2)OC1 (stereo not given)
inactive: dose: 44.4 mg/kg/injection, schedule: Q01DX001 (ip), vehicle: carboxymethylcellulose (CMC) 101 % of control | dose: 66.7 mg/kg/injection, schedule: Q01DX001 (ip), vehicle: carboxymethylcellulose (CMC) 101 % of control | dose: 150.0 mg/kg/injection, schedule: Q01DX001 (ip), vehicle: carboxymethylcellulose (CMC) 107 % of control | dose: 200.0 mg/kg/injection, schedule: Q01DX001 (ip), vehicle: carboxymethylcellulose (CMC) 92 % of control | dose: 400.0 mg/kg/injection, schedule: Q01DX001 (ip), vehicle: carboxymethylcellulose (CMC) 103 % of control

Cc1ccc(NC(=O)OCCCl)c([N+](=O)[O-])c1
inactive: dose: 100.0 mg/kg/injection, schedule: Q01DX001 (ip), vehicle: Klucel (hydroxypropylcellulose) (HPC) 106 % of control | [3] 96 % of control and 100 % of control | [16] 97 % of control and 102 % of control | [6] 98 % of control | dose: 200.0 mg/kg/injection, schedule: Q01DX001 (ip), vehicle: Klucel (hydroxypropylcellulose) (HPC) 101 % of control | [4] 94 % of control and 111 % of control | [18] 96 % of control and 97 % of control | [7] 93 % of control | dose: 400.0 mg/kg/injection, schedule: Q01DX001 (ip), vehicle: Klucel (hydroxypropylcellulose) (HPC) 98 % of control | [5] 94 % of control and 91 % of control | [20] 97 % of control and 98 % of control | [8] 111 % of control

C1=C\C2CC2CCCC/1 (stereo not given)
inactive: dose: 12.5 mg/kg/injection, schedule: Q01DX005 (ip), vehicle: saline with Tween-80 86 % of control | dose: 25.0 mg/kg/injection, schedule: Q01DX005 (ip), vehicle: saline with Tween-80 96 % of control | [14] 98 % of control | dose: 50.0 mg/kg/injection, schedule: Q01DX005 (ip), vehicle: saline with Tween-80 89 % of control | [15] 94 % of control | [9] 102 % of control
